The subject of one assay is Actinomyces turicensis. The assay is described as follows: MIC of baseline clinical isolates (Example 8). The format is cell-based. The settings on record: Actinomyces turicensis baseline isolates (N′ = 1), central laboratory, mITT. In short, it runs like this:
(§1)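 Isolates came from samples taken on Day 1 and at any later surgery at the index site: infected bone or tissue next to implants, deep infection-site swabs, and superficial tissue, wound closure or sinus tract. Local clinical laboratories analysed parallel sample sets to guide antibiotic treatment.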

The test system of assay [1] is Staphylococcus lugdunensis. The experiment in a line: MIC of baseline clinical isolates (Example 8). The following applies: Staphylococcus lugdunensis baseline isolates (N′ = 3), central laboratory, mITT. The format is cell-based. The method, boiled down: as §1
For a further assay, the system named is Staphylococcus arlettae. The assay is described as follows: MIC of baseline clinical isolates (Example 8). The settings on record: Staphylococcus arlettae baseline isolates (N′ = 1), central laboratory, mITT. The class given is cell-based. The method, boiled down: as §1
The subject of another assay is Staphylococcus hominis. The assay is described as follows: MIC of baseline clinical isolates (Example 8). The settings on record: Staphylococcus hominis baseline isolates (N′ = 1), central laboratory, mITT. The format is cell-based. The method, boiled down: as §1
In a further assay the test system is Staphylococcus pasteuri. The assay is described as follows: MIC of baseline clinical isolates (Example 8). The class given is cell-based. The settings on record: Staphylococcus pasteuri baseline isolates (N′ = 1), central laboratory, mITT. The method, boiled down: as §1
Another assay relates to F. magna. The assay is described as follows: MIC of baseline clinical isolates (Example 8). The following applies: Finegoldia magna baseline isolates (N′ = 4), central laboratory, mITT. The format is cell-based. In short, it runs like this: as §1
A further assay has as its system S. epidermidis. The assay is described as follows: MIC of baseline clinical isolates (Example 8). The class given is cell-based. The settings on record: Staphylococcus epidermidis baseline isolates (N′ = 5), central laboratory, mITT. The method, boiled down: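 Clinical microbiology is assessed at Day 1 and again whenever the index site undergoes surgery. Bone, adjacent tissue and swabs from deep and superficial locations are sampled, and a parallel set goes to the local site laboratory.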

Assay [2] deals with non-speciated Anaerococcus. The assay is described as follows: MIC of baseline clinical isolates (Example 8). The format is cell-based. The settings on record: Anaerococcus non-speciated baseline isolates (N′ = 1), central laboratory, mITT. In short, it runs like this: as §1
Another assay deals with A. baumannii. The experiment in a line: Broth microdilution MIC (Example 5). The class given is cell-based, Acinetobacter baumannii. The settings on record: Acinetobacter baumannii. Here is the method: (§2) Test and Comparator Agents: The test agents were stored at room temperature until assayed. […] The stock solutions were allowed to stand for at least 1 hr prior to use to auto-sterilize.
(§3) TestMedia: Test media were prepared and stored in accordance with guidelines from CLSI (4, 6, 7).
(§4) Broth Microdilution MC Testing (Aerobic Bacteria and Yeast): The broth microdilution assay method employed for the susceptibility testing of aerobic bacteria (excluding N. gonorrhoeae which was evaluated by agar dilution) and yeast essentially followed the procedures described by CLSI (3, 4, 7, 8) and employed automated liquid handlers to conduct serial dilutions and liquid transfers. […] These would become the ‘mother plates’ from which ‘daughter’ or test plates would be prepared. The drugs (300 μL at 40× the desired top concentration in the test plates) were dispensed into the appropriate well in Column 1 of the mother plates. The Biomek 2000 was used to make serial two-fold dilutions through Column 11 in the “mother plate”. The wells of Column 12 contained no drug and ultimately served as the organism growth control wells.
(§5) The daughter plates were prepared using the Biomek FX which transferred 5 μL of drug solution from each well of a mother plate to the corresponding well of the correct daughter plate in a single step.
(§6) A standardized inoculum of each organism was prepared per CLSI methods (3, 7). Isolated colonies of each test isolate were picked from the primary plate and a suspension was prepared to equal a 0.5 McFarland turbidity standard. Standardized suspensions were then diluted […] (1:100 for yeast, 1:20 for bacteria). After dilution, the inoculum suspensions were then transferred to compartments of sterile reservoirs divided by length (Beckman Coulter), and the Biomek 2000 was used to inoculate all plates. Daughter plates were placed on the Biomek 2000 in reverse orientation so that plates were inoculated from low to high drug concentration.
(§7) The Biomek 2000 delivered 10 μL of standardized inoculum into each well of the appropriate daughter plate for an additional 1:20 dilution.
(§8) Plates were stacked 4 high, covered with a lid on the top plate, placed into plastic bags, and incubated at 35° C. for approximately 24-48 hr for all yeast isolates and 16-24 hr for aerobic bacteria. Plates were viewed from the bottom using a plate viewer. […] MIC endpoints for the test agents and control compounds were read per CLSI criteria (3, 7).

For the next assay, the system named is P. aeruginosa. The experiment in a line: Broth microdilution MIC (Example 5). The class given is cell-based, Pseudomonas aeruginosa. The following applies: Pseudomonas aeruginosa. How it is done:
as §2, §3, §4, §5, §6, §7, §8

A further assay has as its system S. pneumoniae. The assay is described as follows: Broth microdilution MIC (Example 5). The class given is cell-based. The following applies: Streptococcus pneumoniae. In short, it runs like this: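 CLSI broth microdilution with serial two-fold drug dilutions and a standardized inoculum from a 0.5 McFarland suspension. Bacteria incubated at 35 °C for 16-24 hr. MIC endpoints read visually per CLSI criteria.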
(In general: Broth dilution looks for growth in wells or tubes with falling amounts of substance.)

Setting [3] is: A. baumannii MMX 3373, Sensitive, read-out: MIC.
Setting [4] is: ATCC27853, P. aeruginosa MMX 103 (ATCC 27853), QC, read-out: MIC.
The mark [5] stands for this setting: ATCC49619, S. pneumoniae MMX 6837 (ATCC 49619), QC.
Setting [6] is: S. pneumoniae MMX 880, LevR SXTR CCR EryR PenR.
Where [7] appears, read: S. pneumoniae MMX 937, MemR SXTR CCR EryR PenR.
The mark [8] stands for this setting: S. pneumoniae MMX 3959, CCR EryR.
[9] abbreviates: S. pneumoniae MMX 5440, MemR SXTR CCR EryR PenR.
Where [10] appears, read: S. pneumoniae MMX 5445, MemR SXTR CCR EryR PenR.
[11] abbreviates: S. pneumoniae MMX 8133, MemR SXTR CCR EryR PenR.

Each structure is given as a SMILES string. Where two headings read alike, the source gives them in different places.

The MIC is the smallest concentration in the dilution series that meets the test's criterion for growth inhibition.

Turning to `CCC[C@@H]1C[C@@H](C(=O)N[C@@H]([C@H]2O[C@H](SC)[C@H](O)[C@@H](O)[C@H]2O)[C@H](C)Cl)N(C)C1` [CLI], the “Mean MIC” value with Actinomyces turicensis was 0.25 µg/mL; in assay [1], 0.03 µg/mL; with Staphylococcus arlettae, 0.25 µg/mL; with Staphylococcus hominis it was 0.12 µg/mL; in the assay with Staphylococcus pasteuri, 1.00 µg/mL; in the assay on F. magna, 4.38 µg/mL. Further, the “Mean MIC” value amounted to 3.66 µg/mL with S. epidermidis and 0.25 µg/mL in assay [2]. Moreover, the “n (% resistant)” value in the assay on Actinomyces turicensis was 0 (0.0) n (%); in [1], 0 (0.0) n (%); in the assay with Staphylococcus arlettae it was 0 (0.0) n (%); with Staphylococcus hominis, 0 (0.0) n (%); in the assay on Staphylococcus pasteuri, 1 (100.0) n (%); in the assay with F. magna it was 2 (50.0) n (%). Also, the “n (% resistant)” value is reported as 1 (20.0) n (%) with S. epidermidis and 0 (0.0) n (%) in assay [2].
Consider `C[C@H]1COc2c(N3CCN(C)CC3)c(F)cc3c(=O)c(C(=O)O)cn1c23` [Levofloxacin], for which the MIC in assay [1] was found to be 0.92 µg/mL; in the assay on Staphylococcus arlettae, 0.5 µg/mL; in the assay on Staphylococcus hominis, 8 µg/mL; with Staphylococcus pasteuri, 0.25 µg/mL; in the assay on S. epidermidis, 2.52 µg/mL. For the same compound, the “n (% resistant)” value was 0 (0.0) n (%) in [1]; 0 (0.0) n (%) in the assay on Staphylococcus arlettae; 1 (100.0) n (%) in the assay on Staphylococcus hominis; 0 (0.0) n (%) in the assay on Staphylococcus pasteuri; 2 (40.0) n (%) in the assay on S. epidermidis.
In the case of `OCC(S)CS.[Bi]` (stereo not drawn) [MB-2B, bismuth-2,3-dimercaptopropanol], the MIC against A. baumannii (A. baumannii MMX 2592, MDR) came out at 16 µg/mL; in the assay on A. baumannii (A. baumannii MMX 2593, MDR), 16 µg/mL; in the assay with A. baumannii (A. baumannii MMX 3372, MDR), 16 µg/mL; in the assay with A. baumannii (setting [3]), 16 µg/mL; in the assay with A. baumannii (NCTC13304, A. baumannii MMX 4651 (NCTC 13304), MDR, OXA-27) it was 16 µg/mL; in the assay on P. aeruginosa (setting [4]), 8 µg/mL. Also, the MIC is 2 µg/mL in the assay with P. aeruginosa (P. aeruginosa MMX 1381, MDR); 4 µg/mL in the assay on P. aeruginosa (P. aeruginosa MMX 2562, MDR); 8 µg/mL against P. aeruginosa (P. aeruginosa MMX 3991, MDR); 8 µg/mL in the assay on P. aeruginosa (P. aeruginosa MMX 4654, IMP-7); 16 µg/mL against P. aeruginosa (P. aeruginosa MMX 4697, VIM-2); 8 µg/mL in the assay on S. pneumoniae (setting [5]). In addition, the MIC against S. pneumoniae (setting [6]) stood at 8 µg/mL; with S. pneumoniae (setting [7]) it was 1 µg/mL; with S. pneumoniae (setting [8]), 8 µg/mL; in the assay with S. pneumoniae (setting [9]), 8 µg/mL; against S. pneumoniae (setting [10]), 8 µg/mL; in the assay with S. pneumoniae (setting [11]), 8 µg/mL. The MIC with S. pneumoniae (read-out: MIC values across isolates, pneumococci (Table 6)) was 1 to 8 µg/mL.
Take `CC(S)C(C)S.[Bi]` (stereo not drawn) [MB-6, bismuth-2,3-butanedithiol]: the MIC with A. baumannii (setting [3]) stood at 0.5 µg/mL; in the assay on P. aeruginosa (setting [4]), 1 µg/mL; with S. pneumoniae (setting [5]) it was 0.5 µg/mL; in the assay with S. pneumoniae (setting [6]) it was 0.5 µg/mL; in the assay on S. pneumoniae (setting [7]), 8 µg/mL; against S. pneumoniae (setting [8]), 1 µg/mL. Further, the MIC in the assay with S. pneumoniae (setting [9]), in the assay with S. pneumoniae (setting [10]) and with S. pneumoniae (setting [11]) was 0.5 µg/mL in each case.
`C[C@@H](O)[C@H]1C(=O)N2C(C(=O)O)=C(S[C@@H]3CN[C@H](C(=O)N(C)C)C3)[C@H](C)[C@H]12` [Meropenem]: the “n (% resistant)” value (in the assay on Actinomyces turicensis; in the assay with F. magna; in assay [2]) was 0 (0.0) n (%) each time. The MIC was determined as 0.25 µg/mL in the assay on Actinomyces turicensis (Schaalia turicensis), 0.06 µg/mL in the assay on F. magna and 0.25 µg/mL in assay [2].

Source of the values: patent US20240285571A1, “METHODS OF TREATING BONE INFECTIONS” (MICROBION CORPORATION, priority 2020, published 2024).
